Data reported in ChEMBL document CHEMBL1151559, “Pyridine and piperidine derivatives as inhibitors of dihydrodipicolinic acid synthase, a key enzyme in the diaminopimelate pathway to l-lysine” (Bioorg Med Chem Lett, 1994).
“And” between values parts separate entries of the source, which are not always exact repeats. Equal values may be shown once.

These compounds were tested against T1, Dihydrodipicolinate synthase (Streptomyces coelicolor (strain ATCC BAA-471 / A3(2) / M145), UniProt Q93RY0) (assay: Inhibitory activity against dihydrodipicolinic acid synthase).
T1 sequence (Q93RY0 whole entry): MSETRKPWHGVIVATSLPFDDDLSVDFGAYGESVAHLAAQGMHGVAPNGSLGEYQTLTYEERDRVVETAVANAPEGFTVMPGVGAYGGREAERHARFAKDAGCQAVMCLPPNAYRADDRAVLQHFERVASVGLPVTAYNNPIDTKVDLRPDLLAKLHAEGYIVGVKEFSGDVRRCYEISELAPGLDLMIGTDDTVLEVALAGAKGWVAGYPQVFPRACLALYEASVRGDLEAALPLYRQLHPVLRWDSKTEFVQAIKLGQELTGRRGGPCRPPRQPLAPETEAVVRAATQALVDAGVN
Type: functional, Escherichia coli

Ki [mM]	Compound
6.3	N#C[C@@H]1CCC[C@@H](C#N)N1

What follows are compounds tested against T1, Dihydrodipicolinate synthase (Streptomyces coelicolor (strain ATCC BAA-471 / A3(2) / M145), UniProt Q93RY0) (assay: In vitro inhibition of dihydrodipicolinic acid synthase.).
Type: functional, Escherichia coli

IC50	Compound
300 µM	N#Cc1cccc(C#N)n1
200 µM	O=C(O)c1cccc(C(=O)O)[n+]1[O-]
700 µM	COC(=O)[C@@H]1CCC[C@@H](C(=O)OC)N1C
700 µM	COC(=O)c1cccc(C(=O)OC)n1
7200 µM	N=C[C@@H]1CCC[C@H](C=N)N1
700 µM	COC(=O)[C@@H]1CCC[C@H](C(=O)OC)N1
5200 µM	COC(=O)[C@@H]1CCC[C@@H](C(=O)OC)N1
800 µM	O=C(O)c1cccc[n+]1[O-]
200 µM	COC(=N)c1cccc(C(=N)OC)n1
1000 µM	O=C(O)c1ccccn1 [2-PICOLINIC ACID]
400 µM	O=C(O)c1cccc(C(=O)O)n1 [DIPICOLINIC ACID]
7400 µM	N#C[C@@H]1CCC[C@H](C#N)N1

Compound	IC50
COC(=O)[C@H]1CCC[C@@H](C(=O)OC)N1N=O	6200 µM and 700 µM
O=NN1CCCCC1C(=O)O (stereo not drawn)	3500 µM
O=NN1CCCC1C(=O)O (stereo not drawn)	7500 µM
c1cc(-c2nnn[nH]2)nc(-c2nnn[nH]2)c1	250 µM
O=NN1[C@@H](C(=O)O)CCC[C@H]1C(=O)O	2300 µM
